Data: PubChem BioAssay AID1259407 (Chemical Carcinogenesis Research Information System (CCRIS), 2018)
The source made the active and inactive calls. How the calls were made is not given here.

System: CCRIS mutagenicity, Ames/micronucleus/aberration tests
Assay: CCRIS mutagenicity studies
[1] = Test System: AMES SALMONELLA TYPHIMURIUM, Strain/Indicator: TA98, Metabolic Activation: NONE, Method: PREINCUBATION
[2] = Test System: AMES SALMONELLA TYPHIMURIUM, Strain/Indicator: TA98, Metabolic Activation: RAT, LIVER, S-9, AROCLOR 1254, Method: STANDARD PLATE
[3] = Test System: AMES SALMONELLA TYPHIMURIUM, Strain/Indicator: TA98, Metabolic Activation: RAT, LIVER, S-9, PHENOBARBITAL AND BETA-NAPHTHOFLAVONE, Method: PREINCUBATION
[4] = Test System: AMES SALMONELLA TYPHIMURIUM, Strain/Indicator: TA100, Metabolic Activation: NONE, Method: PREINCUBATION
[5] = Test System: AMES SALMONELLA TYPHIMURIUM, Strain/Indicator: TA100, Metabolic Activation: NONE, Method: STANDARD PLATE
[6] = Test System: AMES SALMONELLA TYPHIMURIUM, Strain/Indicator: TA100, Metabolic Activation: RAT, LIVER, S-9, AROCLOR 1254, Method: STANDARD PLATE
[7] = Test System: AMES SALMONELLA TYPHIMURIUM, Strain/Indicator: TA100, Metabolic Activation: RAT, LIVER, S-9, PHENOBARBITAL AND BETA-NAPHTHOFLAVONE, Method: PREINCUBATION
[8] = Test System: AMES SALMONELLA TYPHIMURIUM, Strain/Indicator: TA1535, Metabolic Activation: NONE, Method: PREINCUBATION
[9] = Test System: AMES SALMONELLA TYPHIMURIUM, Strain/Indicator: TA1535, Metabolic Activation: RAT, LIVER, S-9, PHENOBARBITAL AND BETA-NAPHTHOFLAVONE, Method: PREINCUBATION
[10] = Test System: AMES SALMONELLA TYPHIMURIUM, Strain/Indicator: TA1537, Metabolic Activation: NONE, Method: PREINCUBATION
[11] = Test System: AMES SALMONELLA TYPHIMURIUM, Strain/Indicator: TA1537, Metabolic Activation: NONE, Method: STANDARD PLATE
[12] = Test System: AMES SALMONELLA TYPHIMURIUM, Strain/Indicator: TA1537, Metabolic Activation: RAT, LIVER, S-9, AROCLOR 1254, Method: STANDARD PLATE
[13] = Test System: AMES SALMONELLA TYPHIMURIUM, Strain/Indicator: TA1537, Metabolic Activation: RAT, LIVER, S-9, PHENOBARBITAL AND BETA-NAPHTHOFLAVONE, Method: PREINCUBATION
[14] = Test System: AMES SALMONELLA TYPHIMURIUM, Strain/Indicator: TA98, Metabolic Activation: RAT, LIVER, S-9, PCB, Method: PREINCUBATION
[15] = Test System: AMES SALMONELLA TYPHIMURIUM, Strain/Indicator: TA100, Metabolic Activation: RAT, LIVER, S-9, PCB, Method: PREINCUBATION

`[Cl][Cr]([Cl])[Cl]` was tested, and the mutagenic call (End Point: IN VITRO MICRONUCLEUS, Test System: CHL/IU CELLS, Metabolic Activation: NONE) was “active; positive”, the mutagenic call (Test System: AMES SALMONELLA TYPHIMURIUM, Strain/Indicator: TA94, Metabolic Activation: NONE, Method: STANDARD PLATE) was “active; positive” and the mutagenic call (Test System: AMES SALMONELLA TYPHIMURIUM, Strain/Indicator: TA98, Metabolic Activation: HAMSTER, LIVER, S-9, AROCLOR 1254, Method: STANDARD PLATE) was “inactive; negative”. For the same compound, the mutagenic call [1] was “inactive; negative”, the mutagenic call [2] was “inactive; negative” and the mutagenic call [3] was “inactive; negative”. For the same compound, the mutagenic call (Test System: AMES SALMONELLA TYPHIMURIUM, Strain/Indicator: TA100, Metabolic Activation: HAMSTER, LIVER, S-9, AROCLOR 1254, Method: STANDARD PLATE) was “inactive; negative”, the mutagenic call [4] was “inactive; negative” and the mutagenic call [5] was “inactive; negative”. For the same compound, the mutagenic call [6] was “inactive; negative”, the mutagenic call [7] was “inactive; negative” and the mutagenic call (Test System: AMES SALMONELLA TYPHIMURIUM, Strain/Indicator: TA102, Metabolic Activation: HAMSTER, LIVER, S-9, AROCLOR 1254, Method: STANDARD PLATE) was “active; positive”. For the same compound, the mutagenic call (Test System: AMES SALMONELLA TYPHIMURIUM, Strain/Indicator: TA102, Metabolic Activation: RAT, LIVER, S-9, AROCLOR 1254, Method: STANDARD PLATE) was “active; positive”, the mutagenic call (Test System: AMES SALMONELLA TYPHIMURIUM, Strain/Indicator: TA1535, Metabolic Activation: HAMSTER, LIVER, S-9, AROCLOR 1254, Method: STANDARD PLATE) was “inactive; negative” and the mutagenic call [8] was “inactive; negative”. The mutagenic call (Test System: AMES SALMONELLA TYPHIMURIUM, Strain/Indicator: TA1535, Metabolic Activation: NONE, Method: STANDARD PLATE) was “inactive; negative”, the mutagenic call (Test System: AMES SALMONELLA TYPHIMURIUM, Strain/Indicator: TA1535, Metabolic Activation: RAT, LIVER, S-9, AROCLOR 1254, Method: STANDARD PLATE) was “inactive; negative” and the mutagenic call [9] was “inactive; negative”. For the same compound, the mutagenic call (Test System: AMES SALMONELLA TYPHIMURIUM, Strain/Indicator: TA1537, Metabolic Activation: HAMSTER, LIVER, S-9, AROCLOR 1254, Method: STANDARD PLATE) was “inactive; negative”, the mutagenic call [10] was “inactive; negative” and the mutagenic call [11] was “inactive; negative”. The mutagenic call [12] was “inactive; negative”, the mutagenic call [13] was “inactive; negative” and the mutagenic call (Test System: AMES SALMONELLA TYPHIMURIUM, Strain/Indicator: TA1538, Metabolic Activation: NONE, Method: PREINCUBATION) was “inactive; negative”. The mutagenic call (Test System: AMES SALMONELLA TYPHIMURIUM, Strain/Indicator: TA1538, Metabolic Activation: RAT, LIVER, S-9, PHENOBARBITAL AND BETA-NAPHTHOFLAVONE, Method: PREINCUBATION) was “inactive; negative”, the mutagenic call (Test System: CHINESE HAMSTER OVARY CELLS, Strain/Indicator: CHO CELLS (HPRT)/6-THIOGUANINE, Metabolic Activation: NONE, Method: STANDARD PLATE) was “active; positive” and the mutagenic call (Test System: E. COLI, Strain/Indicator: WP2 UVRA, Metabolic Activation: NONE, Method: SPOT TEST) was “inactive; negative”. For the same compound, the mutagenic call (Test System: E. COLI, Strain/Indicator: WP2UVRA, Metabolic Activation: RAT LIVER S-9, PHENOBARBITAL AND BETA-NAPHTHOFLAVONE, Method: PREINCUBATION) was “inactive; negative”, the mutagenic call (Test System: E.COLI, Strain/Indicator: WP2UVRA, Metabolic Activation: NONE, Method: PREINCUBATION) was “inactive; negative” and the mutagenic call (Test System: Mouse lymphoma, Strain/Indicator: L5178Y (tk+/tk-), Metabolic Activation: None, Method: Suspension/plate) was “inactive; negative”. The mutagenic call (Test System: Mouse lymphoma, Strain/Indicator: L5178Y (tk+/tk-), Metabolic Activation: Rat, Liver, S-9, Aroclor 1254, Method: Suspension/plate) was “active; equivocal (previous evaluation positive)”.

With `COc1nncc2ncccc12` the mutagenic call [1] was “inactive; negative”, the mutagenic call [14] was “inactive; negative” and the mutagenic call [4] was “inactive; negative”. For the same compound, the mutagenic call [15] was “inactive; negative”.

With `C[C@@H]1COc2c(N3CCN(C)CC3)c(F)cc3c(=O)c(C(=O)O)cn1c23` the mutagenic call [1] was “inactive; negative”, the mutagenic call [3] was “inactive; negative” and the mutagenic call [4] was “inactive; negative”. The mutagenic call [7] was “inactive; negative”, the mutagenic call [8] was “inactive; negative” and the mutagenic call [9] was “inactive; negative”. The mutagenic call [10] was “inactive; negative”, the mutagenic call [13] was “inactive; negative” and the mutagenic call (Test System: E.COLI, Strain/Indicator: WP2 UVRA, Metabolic Activation: NONE, Method: PREINCUBATION) was “inactive; negative”. For the same compound, the mutagenic call (Test System: E.COLI, Strain/Indicator: WP2 UVRA, Metabolic Activation: RAT, LIVER, S-9, PHENOBARBITAL AND BETA-NAPHTHOFLAVONE, Method: PREINCUBATION) was “inactive; negative”.

For `NNc1nncc2ncccc12`, the mutagenic call [1] was “active; positive”, the mutagenic call [14] was “active; positive” and the mutagenic call [4] was “active; positive”. The mutagenic call [15] was “active; positive”.

`O=C1C[C@H](O)[C@@H]2c3c(ccc(O)c31)-c1ccc(O)c3c1[C@@]2(O)CCC3=O` was tested, and the mutagenic call (Test System: AMES SALMONELLA TYPHIMURIUM, Strain/Indicator: TA98, Metabolic Activation: RAT LIVER S-9, AROCLOR 1254, Method: STANDARD PLATE) was “active; positive”, the mutagenic call [2] was “active; positive” and the mutagenic call (Test System: AMES SALMONELLA TYPHIMURIUM, Strain/Indicator: TA100, Metabolic Activation: RAT LIVER S-9, AROCLOR 1254, Method: STANDARD PLATE) was “inactive; negative”. For the same compound, the mutagenic call [6] was “active; positive”, the mutagenic call [11] was “active; positive” and the mutagenic call [12] was “active; positive”. The mutagenic call (Test System: Ames Salmonella typhimurium, Strain/Indicator: TA97, Metabolic Activation: None, Method: Standard plate) was “inactive; negative. nitrosation increased mutagenicity”, the mutagenic call (Test System: Ames Salmonella typhimurium, Strain/Indicator: TA97, Metabolic Activation: Rat, Liver, S-9, Aroclor 1254 (10%), Method: Standard plate) was “inactive; negative. nitrosation increased mutagenicity” and the mutagenic call (Test System: Ames Salmonella typhimurium, Strain/Indicator: TA102, Metabolic Activation: None, Method: Standard plate) was “active; positive. nitrosation yielded mutagenic product”. For the same compound, the mutagenic call (Test System: Ames Salmonella typhimurium, Strain/Indicator: TA102, Metabolic Activation: Rat, Liver, S-9, Aroclor 1254 (10%), Method: Standard plate) was “active; positive. nitrosation yielded mutagenic product”, the mutagenic call (Test System: Ames Salmonella typhimurium, Strain/Indicator: TA104, Metabolic Activation: None, Method: Standard plate) was “inactive; negative. nitrosation increased mutagenicity” and the mutagenic call (Test System: Ames Salmonella typhimurium, Strain/Indicator: TA104, Metabolic Activation: Rat, Liver, S-9, Aroclor 1254 (10%), Method: Standard plate) was “inactive; negative. nitrosation increased mutagenicity”. For the same compound, the mutagenic call (Test System: Chinese hamster fibroblasts, Strain/Indicator: V79 (Hprt)/6-thioguanine, Metabolic Activation: None, Method: Standard plate) was “inactive; negative (positive in presence of nitrosating medium_” and the mutagenic call (Test System: Rat hepatoma cells, Strain/Indicator: H4IIE (Hprt/6-thioguanine), Metabolic Activation: None, Method: Standard plate) was “inactive; negative (positive in presence of nitrosating medium)”.

For `Cc1cccc2c1cc(C)c1c3c(ccc12)C(O)C(O)C1OC31` (stereo not given), the mutagenic call [4] was “active; positive” and the mutagenic call [5] was “active; positive”.
